In patent US12486218B2, “Compounds advantageous in the treatment of central nervous system diseases and disorders” (AurimMed Pharma, Inc., priority 2008, dated 2025):
Where two headings read alike, the source gives them in different places.

Assays:
[1] = system: rat dopaminergic N27 cells; test: N27 protection assay against oxidative stress (H2O2 or MPP+; MTT and LDH); type: cell-based; conditions: drug 24 hours before 200 μM H2O2 or 640 μM MPP+
Text: FIGS. 20A-25D data are shown illustrating neuroprotective and neuroregenerative effects observed in rat dopaminergic N27 cells. Rat dopaminergic N27 cells are commonly used in in vitro and in vivo model systems for studying Parkinson's disease. Parkinson's disease is a neurodegenerative disorder of the central nervous system that affects more than 6 million people worldwide. The motor symptoms of Parkinson's disease result from the death of dopamine generating cells in the substantia nigra, a region of the midbrain.
The N27 rat dopaminergic neuron cell line was harvested from E12 rat mesencephalic tissue and was transfected with SV40 to immortalize the cell line. The N27 cell line, when injected into the striata of 6-hydroxydopamine-lesioned rats (an animal model of PD) caused a time-dependent improvement in neurological deficits. This immortalized cell line has been carefully characterized in studies of dopamine biosynthesis, neurotoxicity and used as a dopaminergic neuron model studies.
The N27 in vitro Parkinson's disease model included a test of cell viability and cell toxicity in response to exposure to oxidative stress (e.g., either 200 μM H2O2 or 640 μM MPP+).
Cell viability was tested using the MTT assay. The MTT assay is a colorimetric analysis based on the activities of mitochondrial NAD(P)H-dependent cellular oxidoreductase enzymes. These enzymes are capable of reducing the tetrazolium dye, MTT [3-(4,5-dimethylthiazol-2-yl)-2,5-diphenyltetrazolium] bromide, to an insoluble formazan (purple). […] More viable cells equal more accumulation of the insoluble formazan dye.
Cell toxicity was tested using the […] (LDH) assay. Cells that are stressed secrete LDH. In general, the more cells are stressed, the LDH they secrete into their media. The LDH assay is a reliable colorimetric assay to measure quantitatively the […] (LDH) that is released into the cell culture media from damaged cells as a biomarker for cytotoxicity and cytolysis.
FIGS. 20A-25D present data from two types of assays: protection and recovery assays. In the protection assays, the drug candidate was applied to the cells at various concentrations for 24 hours, followed by the exposure to oxidative stress (either 200 μM H2O2 or 640 μM MPP+) for measuring neuroprotective effect. H2O2 provides a broad measure of oxidative stress, while MPP+ gives a more specific oxidative stress to dopaminergic neurons.
The protection assay results are shown in panels A-C of FIGS. 20-25 In the recovery assays, the cells were first damaged by exposure to H2O2 and then various concentrations of the drug were applied to the cells. The results for the recovery assays are shown the D panels of FIGS. 20-25.

[2] = system: SMN2 promoter; test: SMN2 promoter β-lactamase reporter assay in NSC34 motor neuron-like cells; type: cell-based; conditions: for Promoter (SMN2 promoter test, summary YES/NO): Table 13 summary; for SMN2 promoter activity: treatment for 19 hours at a concentration of 1 μM
Experimental: FIG. 30 illustrates a screen for SMN2 expression of a number of compounds described herein.
SMN2 promoter activity was measured using NSC34 motor neuron-like cells stably transfected with a β-lactamase (BLA) reporter gene under the control of a 3.4-kilobase fragment of the SMN2 promoter. D156844 was used as a positive control for this assay.

[3] = system: rats; test: Pilocarpine-induced Status Epilepticus in Rats (prevention; intervention @ 30 min)
Experimental: The animal testing was performed using the protocols developed in the Anticonvulsant Screening Program (ASP) at the National Institute of Neurological Disorders and Stroke (NINDS), National Institutes of Health (NIH).

[4] = system: mice; test: Minimal motor impairment (MID50), mice i.p.; conditions: mice i.p.
Experimental: The animal testing was performed according to methods known in the relevant art.

[5] = system: mice; test: Subcutaneous Metrazol Seizure threshold (s.c. MET) test, mice i.p.; type: in vivo; conditions: for s.c. MET, fraction of animals: mice i.p.; for activity in the s.c. MET test: mice, at 300 mg/kg
[6] = system: inclusion of exon 7 in SMN2 mRNAs; test: Exon 7 inclusion BLA reporter assay in NSC34 cell line; type: cell-based; conditions: for effect on the inclusion of exon 7 in SMN2 transcripts / exon 7 test, particularly strong hits: NSC34 exon 7 BLA reporter cells; for Exon 7 inclusion (summary YES/NO): Table 13 summary
Text: To measure changes in the inclusion of exon 7 in SMN2 mRNAs, another NSC34 cell line was used that stably transfected with a reporter construct which expresses BLA when exon 7 is included in the SMN2 minigene mRNAs. 5-(N-ethyl-N-isopropyl)-amiloride (EIPA) was used as a positive control for this assay. Data for tis assay is illustrated in FIG. 30.

[7] = system: mice; test: Maximal Electroshock Seizure (MES) test, mice i.p.; type: in vivo; conditions: for MES, fraction of animals: mice i.p.; for activity in the MES test: mice
[8] = system: mice; test: 6 Hz (minimal clonic seizure) model, mice i.p.; type: in vivo; conditions: for 6 Hz (32 mA), fraction of animals: mice i.p.; for activity in the 6 Hz (minimal clonic seizure) model: mice
[9] = Rattus norvegicus, 0.5 h, read-out: Intervention @ 30 min, Protection
[10] = Rattus norvegicus, read-out: Prevention, Protection

## Cc1nc(C)c(C(C)CC(N)=O)cc1C(C)CC(N)=O (mixture of isomers) [DA]
[1]
  neuroprotective effect against H2O2 and MPP+ oxidative stresses (MTT and LDH assays): statistically significant, dose-dependent neuroprotection
[2]
  Promoter (SMN2 promoter test, summary YES/NO): YES
  SMN2 promoter activity: increased SMN2 promoter activity

## CC(CC(N)=O)c1ccc(S(C)(=O)=O)cc1 (racemic) [AV]
[3]; rats, pilocarpine-induced status epilepticus, dose 600 mg/kg
  Prevention, Protection: 25%
[1]
  neuroprotective effect against H2O2 and MPP+ oxidative stresses (MTT and LDH assays): statistically significant, dose-dependent neuroprotection

## CC(O)(CC(N)=O)c1cccc(OC(F)(F)F)c1 (racemic) [CD]
[4]; 100 mg/kg @ 0.5 hr
  MID50, fraction of animals: 1/8 @ 0.50 hr,
[4]; 300 mg/kg @ 0.5 hr
  MID50, fraction of animals: 4/4 @ 0.5
[4]; 300 mg/kg @ 4.0 hr
  MID50, fraction of animals: hr & 2/2
[5]; 30 mg/kg @ 0.5 hr
  s.c. MET, fraction of animals: 3/5@ 0.50
[5]; 100 mg/kg @ 0.5 hr
  s.c. MET, fraction of animals: 1/1 @ 0.5,
[5]; 100 mg/kg @ 4.0 hr
  s.c. MET, fraction of animals: 1/1 @ 0.5,

## NC(=O)CC1(c2ccc(Cl)cc2)CCCC1 [AJ]
[6]
  effect on the inclusion of exon 7 in SMN2 transcripts: positive effect on the inclusion of exon 7
  exon 7 test, particularly strong hits: Particularly strong hits
  Exon 7 inclusion (summary YES/NO): YES
[5]; 300 mg/kg @ 0.5 hrs
  s.c. MET, fraction of animals: 1/1 @ 0.5 hrs,
[2]
  Promoter (SMN2 promoter test, summary YES/NO): YES
  SMN2 promoter activity: increased SMN2 promoter activity
[7]; 100 mg/kg @ 0.25 hr
  MES, fraction of animals: 3/3
[7]; 100 mg/kg @ 1.0 hr
  MES, fraction of animals: 1/3

## COc1ccc(C(CC(N)=O)C2CC2)cc1C (centres unmarked) [AN, 3-Cyclopropyl-3-(4-methoxy-3-methyl-phenyl)propionamide]
[8]; 100 mg/kg @ 0.25 hr
  6 Hz (32 mA), fraction of animals: 4/4
[8]; 100 mg/kg @ 0.5 hr
  6 Hz (32 mA), fraction of animals: 3/4
[8]; 100 mg/kg @ 1.0 hr
  6 Hz (32 mA), fraction of animals: 1/4 @
[8]; at 100 mg/kg
  activity in the 6 Hz (minimal clonic seizure) model: activity
[6]
  effect on the inclusion of exon 7 in SMN2 transcripts: positive effect on the inclusion of exon 7
[2]
  Promoter (SMN2 promoter test, summary YES/NO): YES
  SMN2 promoter activity: increased SMN2 promoter activity
[7]; 100 mg/kg @ 0.25 hr
  MES, fraction of animals: 1/3 @
[7]; at 100 mg/kg
  activity in the MES test: activity

## Cc1cc(C(CC(N)=O)C2CC2)ccc1F (centres unmarked) [AO, 3-Cyclopropyl-3-(4-fluoro-3-methylphenyl)-propionamide]
[5]
  activity in the s.c. MET test: activity
[3]; [9]
  responders at 97 mg/kg: 50%
[3]; [10]
  responders at 65 mg/kg: 86%
[1]
  neuroprotective effect against H2O2 and MPP+ oxidative stresses (MTT and LDH assays): statistically significant, dose-dependent neuroprotection
[7]; 100 mg/kg @ 0.5 hr
  MES, fraction of animals: 1/3 @
[7]; at 100 mg/kg
  activity in the MES test: activity

## CC1CCN(C(=O)CC(C)c2ccc(OC(F)(F)F)cc2)CC1 (centres unmarked) [BK, 1-(4-Methyl-piperidin-1-yl)-3-(4-trifluoromethoxy-phenyl)-butan-1-one]
[8]; at 100 mg/kg
  activity in the 6 Hz (minimal clonic seizure) model: activity
[1]
  neuroprotective effect against H2O2 and MPP+ oxidative stresses (MTT and LDH assays): statistically significant, dose-dependent neuroprotection
[2]
  Promoter (SMN2 promoter test, summary YES/NO): YES
  SMN2 promoter activity: increased SMN2 promoter activity
[7]; 100 mg/kg @ 0.5 hr
  MES, fraction of animals: 1/3
[7]; 100 mg/kg @ 2.0 hr
  MES, fraction of animals: 2/3

## COCCNC(=O)CC(C)c1ccc(OC(F)(F)F)cc1 (centres unmarked) [BL, N-(2-Methoxy-ethyl)-3-(4-trifluoromethoxy-phenyl)-butyramide]
[8]; at 100 mg/kg
  activity in the 6 Hz (minimal clonic seizure) model: activity
[1]
  neuroprotective effect against H2O2 and MPP+ oxidative stresses (MTT and LDH assays): statistically significant, dose-dependent neuroprotection
[7]; 100 mg/kg @ 0.25 hr
  MES, fraction of animals: 2/3 @
[7]; at 100 mg/kg
  activity in the MES test: activity

## COCCCNC(=O)CC(C)c1ccc(OC(F)(F)F)cc1 (centres unmarked) [BM, N-(3-Methoxy-propyl)-3-(4-trifluoromethoxy-phenyl)-butyramide]
[8]; 100 mg/kg @ 0.5 hr
  6 Hz (32 mA), fraction of animals: 1/4 @ 0.5 hr
[5]
  activity in the s.c. MET test: activity
[1]
  neuroprotective effect against H2O2 and MPP+ oxidative stresses (MTT and LDH assays): statistically significant, dose-dependent neuroprotection
[2]
  SMN2 promoter activity: increased SMN2 promoter activity
[7]; at 300 mg/kg
  activity in the MES test: activity

## COc1ccc2cc(C(C)CC(N)=O)ccc2c1 (centres unmarked) [Compound AE, 3-(6-Methoxynaphthalen-2-yl)-butyramide]
[8]; 200 mg/kg @ 0.25 hr
  6 Hz (32 mA), fraction of animals: 2/4 @ 0.25 hrs
[8]; at 200 mg/kg
  activity in the 6 Hz (minimal clonic seizure) model: activity
[1]
  neuroprotective effect against H2O2 and MPP+ oxidative stresses (MTT and LDH assays): statistically significant, dose-dependent neuroprotection
[7]; at 100 mg/kg
  activity in the MES test: activity

## CC(CC(N)=O)c1ccc(-c2ccccc2)c(F)c1 (centres unmarked) [Compound AX, 3-(2-Fluoro-biphenyl-4-yl)butyramide]
[8]; 100 mg/kg @ 0.5 hr
  6 Hz (32 mA), fraction of animals: 3/4
[8]; 100 mg/kg @ 1.0 hr
  6 Hz (32 mA), fraction of animals: 2/4
[8]; 100 mg/kg @ 2.0 hr
  6 Hz (32 mA), fraction of animals: 1/4 @
[8]; at 100 mg/kg
  activity in the 6 Hz (minimal clonic seizure) model: activity
[6]
  effect on the inclusion of exon 7 in SMN2 transcripts: positive effect on the inclusion of exon 7
  exon 7 test, particularly strong hits: Particularly strong hits
  Exon 7 inclusion (summary YES/NO): YES
[2]; NSC34 BLA reporter cells
  SMN2 promoter assay, particularly strong hits: particularly strong hits
[2]
  Promoter (SMN2 promoter test, summary YES/NO): YES
  SMN2 promoter activity: increased SMN2 promoter activity

## C[C@H](CC(N)=O)c1ccccc1 [Compound C, (R)-3-Phenylbutyramide]
[4]; 100 mg/kg @ 0.5 hr
  MID50, fraction of animals: 1/8 @0.5 hr
[7]; 100 mg/kg @ 0.5 hr
  MES, fraction of animals: 1/6 @0.5 hr,
[7]; at 100 mg/kg
  activity in the MES test: activity

## CNC(=O)CC(C)c1ccc2c(c1)OCO2 (centres unmarked) [Compound M, N-methyl-3-(3,4-methylenedioxy-phenyl)butyramide]
[3]; [10]
  responders at 600 mg/kg: 100%
[1]
  neuroprotective effect against H2O2 and MPP+ oxidative stresses (MTT and LDH assays): potent dose-dependent neuroprotective effects
[2]
  Promoter (SMN2 promoter test, summary YES/NO): YES
  SMN2 promoter activity: increased SMN2 promoter activity

## CC(CC(=O)N(C)C)c1ccc2c(c1)OCO2 (centres unmarked) [Compound N, N,N-dimethyl-3-(3,4-methylenedioxy-phenyl)butyramide]
[1]
  neuroprotective effect against H2O2 and MPP+ oxidative stresses (MTT and LDH assays): potent dose-dependent neuroprotective effects
[7]; 100 mg/kg @ 0.5 hr
  MES, fraction of animals: 1/3 @0.5 hr,
[7]; at 300 mg/kg
  activity in the MES test: activity

## CC(CC(N)=O)c1ccc2c(c1)OCO2 (centres unmarked) [L, 3-(3,4-methylenedioxy-phenyl)butyramide]
[6]
  effect on the inclusion of exon 7 in SMN2 transcripts: positive effect on the inclusion of exon 7
  Exon 7 inclusion (summary YES/NO): YES
[5]
  activity in the s.c. MET test: activity
[3]; [9]
  responders at 600 mg/kg: 29%
[3]; [10]
  responders at 450 mg/kg: 100%
[2]
  SMN2 promoter activity: increased SMN2 promoter activity
[7]; at 300 mg/kg
  activity in the MES test: activity
